In PubChem BioAssay (NCI):
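96-well plates; 48 h exposure; 5 concentrations. Endpoints by linear interpolation between flanking doses. Not reached: highest tested concentration assigned. At the GI50, growth is halved. TGI is the concentration that stops growth completely.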

Test system: MDA-MB-468 breast
Experiment: DTP human tumour cell line panel, 48 h

SMILES | GI50 [µM] | TGI [µM]
COc1ccc(-c2nc(-c3cn(C)c4ncccc34)cs2)cc1 | 3.83 | > 100
COc1ccc(/C=C\c2cc(OC)c(OC)c(OC)c2)cc1OCC(=O)Nc1nc2ccc(C(F)(F)F)cc2s1 | 2.16 | 6.25
S=C(N/N=C/c1ccccn1)Nc1ccccn1 | 1.28 | 5.76
CCN(CC)CCCCCCCNc1c2ccc(Cl)cc2nc2ccc(OC)cc12 | 1.34 | 2.86
Cc1[nH]c(/C=C2\C(=O)Nc3ccc(F)cc32)c(C)c1C(=O)NC[C@H](O)CN1CCOCC1 | > 10 | > 10
S=C(Nc1ccc(Cl)cc1)Nc1ccc(Cl)cc1 (tested in a mixture with another compound) | 1.7 | 5.11
COC(=O)/C(=C\c1c(C)[nH]c2ccccc12)S(=O)(=O)c1ccccc1 | 6.25 | > 100
O=C1CCC2(C=C(Br)C(=O)C(Br)=C2)O1 | 1.64 | 4.29
COc1ccc(-c2nc(-c3ccccc3)c(-c3ccccc3)n2C2CC2)cc1OC1CCCC1 | 66.8 | > 165
